The numbers were not newly measured in patent US20040120985A1, “Food product for increasing the cognitive functional capacity” (priority 2001, published 2004), which cites them from elsewhere.

For data set [1] the following is noted: oral administration.
The test system of data set [2] is aging brain. Conditions: animal experimental studies.
Data set [3] deals with cognitive functional capacity. The conditions noted are these: individuals older than 40 years, 100 mg to 300 mg per day.

Regarding phosphatidyl serine, the bioavailability entry in data set [1] is recorded as “good”. Further, the “passage of the blood-brain barrier” value in data set [1] (after passing through the liver) is “crosses the blood-brain barrier”. In addition, in data set [2], the “ATPase-dependent ion transport via the cell membrane” value was “improves the ATPase-dependent ion transport via the cell membrane”, the “age-related breakdown of the receptors for the nerve growth factor” value is reported as “partially prevents the age-related breakdown of the receptors for the nerve growth factor”, the “cholesterol/phospholipid ratio in the aging brain” value is given as “normalizes the cholesterol/phospholipid ratio in the aging brain” and the neuron atrophy result is “protects against neuron atrophy”. Further, the “protein kinase C balance” value in data set [2] is “normalizes the protein kinase C balance”. Also, the “formation of nerve growth factors” value in data set [2] (effect not identified for other phospholipids) was “promotes the formation of nerve growth factors”. In data set [3], the cognitive functional capacity result is “increased”.
